Assay results taken from patent publication US20220380370A1 (Goldfinch Bio, Inc., priority 2019, published 2022).

Legend:
CB2 receptor = target: T1, CB2 receptor (Homo sapiens, UniProt P34972); test: CB2 cAMP antagonist assay (LANCE Ultra cAMP kit); assay type: cell-based; settings: CB2-CHO cells stably expressing the CB2 receptor; forskolin and agonist CP55940 at EC90
T1 construct: host or cells: CB2-CHO cells, stably expressing
From the text: (§1) LANCE Ultra cAMP kit (Perkin Elmer) was used to quantitate the amount of 3′,5′-cyclic adenosine monophosphate (cAMP) produced in Flp-In CHO cells (Invitrogen) stably expressing the CB1 receptor, CB1-CHO cells (Perkin Elmer) stably expressing the CB1 receptor, or CB2-CHO cells (Perkin Elmer) stably expressing the CB2 receptor.
(§2) Forskolin was initially titrated to determine the response of the cells. The EC90 of forskolin was used for compound testing. CP55940 was titrated and used with EC90 of forskolin to determine the level of agonist stimulation. EC90 of the agonist was used for subsequent compound testing. For the CB1 assay, Forskolin (Sigma), CP55940 (Cayman Chemicals), and AM251 (MCE) were diluted in 100% DMSO, starting at 100 mM, 1 mM, and 1 mM respectively, in 3-fold serial dilutions. For the CB2 assay, Forskolin (Sigma), CP55940 (Cayman Chemicals), and AM630 (MCE) were diluted in 100% DMSO, starting at 100 mM, 1 mM, and 30 mM respectively, in 3-fold serial dilutions. Test compounds were diluted in 100% DMSO starting from 10 mM, 3-fold dilutions. The cAMP assay buffer contains 1× Hank's Buffered Saline Solution with Ca^2+ and Mg^2+ (Invitrogen), 5.3 mM HEPES (Invitrogen), 0.05% BSA, 0.5 mM IBMX (Sigma). For all assays, cells were harvested, counted, and diluted in cAMP assay buffer to 1×10^5 cells/mL. Only cells with viability >85% were used for the assay. Cells were seeded at 1000 cells/well in 384-well plates and 10 nL/well AM251 (for CB1), AM630 (for CB2) or test compound was added and incubated at 37° C. for 10 min. Then forskolin and agonist were added to reach their EC90 and incubated at 25° C. for 30 min. To detect the amount of cAMP produced, 5 μL of a 100× diluted stock of Eu-cAMP tracer and 5 μL of 200× diluted stock of Ulight-anti-cAMP were added to each well, and the plate incubated at 25° C. for 15 min. The FRET signal was read using an EnVision microplate reader (λex=320 nm, λem=615 nm and 665 nm). The results are expressed as % Inhibition, where % inhibition=100−100×(U−C2)/(C1−C2), where U is the FRET ratio (λem (665 nm)/λem (615 nm)) of sample, C1 is the average of the high controls (signal with no antagonist added), and C2 is the average of low controls (signal with the highest concentration of AM251 or AM630 antagonist). The IC50 is determined by fitting the percentage of inhibition as a function of compound concentrations with the Hill equation, using a 4-parameter fit in either XLfit or GraphPad Prism.

CB1 receptor = target: T2, CB1 receptor (Homo sapiens, UniProt P21554); test: CB1 cAMP antagonist assay (LANCE Ultra cAMP kit); assay type: cell-based; settings: CHO cells stably expressing the CB1 receptor; forskolin and agonist CP55940 at EC90
T2 construct: Perkin Elmer (CB1-CHO cells); host or cells: Flp-In CHO cells or CB1-CHO cells, stably expressing
From the text: as §1, §2

T2 sequence (P21554 whole entry): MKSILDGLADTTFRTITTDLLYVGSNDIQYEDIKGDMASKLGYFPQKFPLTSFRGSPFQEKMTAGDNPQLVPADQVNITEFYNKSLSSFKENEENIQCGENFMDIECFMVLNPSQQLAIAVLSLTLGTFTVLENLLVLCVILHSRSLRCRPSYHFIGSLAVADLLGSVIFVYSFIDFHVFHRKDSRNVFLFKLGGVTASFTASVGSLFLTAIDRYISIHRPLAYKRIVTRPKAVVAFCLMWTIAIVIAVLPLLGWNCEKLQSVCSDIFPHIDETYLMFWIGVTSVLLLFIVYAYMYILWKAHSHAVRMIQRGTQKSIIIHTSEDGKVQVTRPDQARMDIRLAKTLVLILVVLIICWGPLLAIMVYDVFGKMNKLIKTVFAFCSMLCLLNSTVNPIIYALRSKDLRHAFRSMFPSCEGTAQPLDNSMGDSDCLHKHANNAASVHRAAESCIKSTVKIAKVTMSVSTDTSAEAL
T1 sequence (P34972 whole entry): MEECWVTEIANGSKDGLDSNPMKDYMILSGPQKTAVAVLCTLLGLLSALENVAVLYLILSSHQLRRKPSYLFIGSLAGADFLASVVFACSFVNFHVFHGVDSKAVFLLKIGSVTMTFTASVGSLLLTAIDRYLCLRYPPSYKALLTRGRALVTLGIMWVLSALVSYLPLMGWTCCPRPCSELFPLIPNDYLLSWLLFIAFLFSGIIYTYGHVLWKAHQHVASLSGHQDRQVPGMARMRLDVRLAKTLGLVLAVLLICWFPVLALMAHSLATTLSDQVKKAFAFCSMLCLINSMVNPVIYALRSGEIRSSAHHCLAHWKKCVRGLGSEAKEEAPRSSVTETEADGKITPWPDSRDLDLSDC

Row | Compound | IC50 (CB2 receptor) [µM] | IC50 (CB1 receptor) [µM]
1 | CC(c1ccc(C(N)=O)cc1)n1c(=O)n(C[C@@H](O)CO)c(=O)c2c1nc(-c1ccccc1Cl)n2-c1ccc(Cl)cc1 (stereo in doubt) [Compound 150, 4-[(1S)-1-[8-(2-chlorophenyl)-7-(4-chlorophenyl)-1-[(2R)-2,3-dihydroxypropyl]-2,6-dioxopurin-3-yl]ethyl]benzamide] | ≥ 5 | < 0.1
2 | O=c1[nH]c(=O)n(C2CCCCC2)c2nc(-c3ccccc3Cl)n(-c3ccc(Cl)cc3)c12 [Compound 100] | ≥ 5 | < 0.1
3 | COCCn1c(=O)c2c(nc(-c3ccccc3Cl)n2-c2ccc(Cl)cc2)n(C2CCCCC2)c1=O [Compound 101] | ≥ 5 | < 0.1
4 | Cn1c(=O)c2c(nc(-c3ccccc3Cl)n2-c2ccc(Cl)cc2)n(C2CCCCC2)c1=O [Compound 103] | ≥ 5 | < 0.1
5 | O=c1c2c(nc(-c3ccccc3Cl)n2-c2ccc(Cl)cc2)n(C2CCCCC2)c(=O)n1CCO [Compound 104, 8-(2-chlorophenyl)-7-(4-chlorophenyl)-3-cyclohexyl-1-(2-hydroxyethyl)-2,3,6,7-tetrahydro-1H-purine-2,6-dione] | ≥ 5 | < 0.1
6 | O=c1c2c(nc(-c3ccccc3Cl)n2-c2ccc(Cl)cc2)n(C2CCCCC2)c(=O)n1CCCO [Compound 105] | ≥ 5 | < 0.1
7 | NC(=O)Cn1c(=O)c2c(nc(-c3ccccc3Cl)n2-c2ccc(Cl)cc2)n(C2CCCCC2)c1=O [Compound 106] | ≥ 5 | < 0.1
8 | Cn1c(=O)c2c(nc(-c3ccccc3Cl)n2-c2ccc(Cl)cc2)n(Cc2ccc(C(=O)NCCO)cc2)c1=O [Compound 112] | ≥ 5 | < 0.1
9 | Cn1c(=O)c2c(nc(-c3ccccc3Cl)n2-c2ccc(Cl)cc2)n(Cc2ccc(C(N)=O)cc2)c1=O [Compound 114] | ≥ 5 | < 0.1
10 | NC(=O)Cn1c(=O)c2c(nc(-c3ccccc3Cl)n2-c2ccc(Cl)cc2)n(CC2CCOCC2)c1=O [Compound 125, 2-[8-(2-chlorophenyl)-7-(4-chlorophenyl)-3-(oxan-4-ylmethyl)-2,6-dioxopurin-1-yl]acetamide] | ≥ 5 | < 0.1
11 | C[C@H](c1ccc(C(=O)NCCO)cc1)n1c(=O)n(C)c(=O)c2c1nc(-c1ccccc1Cl)n2-c1ccc(Cl)cc1 [Compound 131] | ≥ 5 | < 0.1
12 | NC(=O)c1ccc(Cn2c(=O)n(C[C@@H](O)CO)c(=O)c3c2nc(-c2ccccc2Cl)n3-c2ccc(Cl)cc2)cc1 [Compound 132, 4-[[8-(2-chlorophenyl)-7-(4-chlorophenyl)-1-[(2R)-2,3-dihydroxypropyl]-2,6-dioxopurin-3-yl]methyl]benzamide] | ≥ 5 | < 0.1
13 | Cn1c(=O)c2c(nc(-c3ccccc3Cl)n2-c2ccc(Cl)cc2)n(Cc2ccc(S(N)(=O)=O)cc2)c1=O [Compound 135, 4-[[8-(2-chlorophenyl)-7-(4-chlorophenyl)-1-methyl-2,6-dioxopurin-3-yl]methyl]benzenesulfonamide] | ≥ 5 | < 0.1
14 | NC(=O)Cn1c(=O)c2c(nc(-c3ccccc3Cl)n2-c2ccc(Cl)cc2)n(CC2CCS(=O)(=O)CC2)c1=O [Compound 136, 2-[8-(2-chlorophenyl)-7-(4-chlorophenyl)-3-[(1,1-dioxo-1λ^6-thian-4-yl)methyl]-2,6-dioxopurin-1-yl]acetamide] | ≥ 5 | < 0.1
15 | Cn1c(=O)c2c(nc(-c3ccccc3Cl)n2-c2ccc(Cl)cc2)n(Cc2ccc(S(N)(=O)=O)cn2)c1=O [Compound 159, 6-[[8-(2-chlorophenyl)-7-(4-chlorophenyl)-1-methyl-2,6-dioxopurin-3-yl]methyl]pyridine-3-sulfonamide] | ≥ 5 | < 0.1
16 | Cn1c(=O)c2c(nc(-c3ccccc3Cl)n2-c2ccc(Cl)cc2)n(Cc2ccc(S(=O)(=O)NCCO)cn2)c1=O [Compound 164, 6-[[8-(2-chlorophenyl)-7-(4-chlorophenyl)-1-methyl-2,6-dioxopurin-3-yl]methyl]-N-(2-hydroxyethyl)pyridine-3-sulfonamide] | ≥ 5 | < 0.1
17 | Cn1c(=O)c2c(nc(-c3ccccc3Cl)n2-c2ccc(Cl)cc2)n(Cc2ccc(C(=O)NC3CCOCC3)cn2)c1=O [Compound 165] | ≥ 5 | < 0.1
18 | CS(=O)(=O)N1CCC(Cn2c(=O)n(CC(N)=O)c(=O)c3c2nc(-c2ncccc2Cl)n3-c2ccc(Cl)cc2)CC1 [Compound 170, 2-[7-(4-chlorophenyl)-8-(3-chloropyridin-2-yl)-3-[(1-methanesulfonylpiperidin-4-yl)methyl]-2,6-dioxopurin-1-yl]acetamide] | ≥ 5 | < 0.1
